# Results as given in PMC8333425, “Discovery of a dual Ras and ARF6 inhibitor from a GPCR endocytosis screen” (Nature Communications, 2021).
# Legend:
# Experiment in all cases: KINOMEscan kinase binding assay
# [1] = biological target: T1, 384 kinases from the human genome (Homo sapiens, UniProt Q6ZN16); conditions: kinase MAP3K15 (Entrez MAP3K15)
# T1 construct: purchased Eurofin/DiscoverX
# How it was run: (§1)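 A panel of 384 human kinases was profiled by KINOMEscan binding in the presence of 10 µM compound. Kinase–ligand binding was given as percent of DMSO control, averaged from duplicates in a single run, with an S(10) selectivity score.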
# [2] = biological target: T2, 384 kinases from the human genome (Homo sapiens, UniProt Q8WXR4); conditions: kinase MYO3B (Entrez MYO3B)
# T2 construct: purchased Eurofin/DiscoverX
# How it was run: as §1
# [3] = biological target: T3, 384 kinases from the human genome (Homo sapiens, UniProt Q9BWU1); conditions: kinase CDK11 (Entrez CDK19)
# T3 construct: purchased Eurofin/DiscoverX
# How it was run: as §1
# [4] = biological target: T4, 384 kinases from the human genome (Homo sapiens, UniProt P42684); conditions: kinase ABL2 (Entrez ABL2)
# T4 construct: purchased Eurofin/DiscoverX
# How it was run: as §1
# [5] = biological target: T5, 384 kinases from the human genome (Homo sapiens, UniProt Q8NEV4); conditions: kinase MYO3A (Entrez MYO3A)
# T5 construct: purchased Eurofin/DiscoverX
# How it was run: as §1
# [6] = biological target: T6, 384 kinases from the human genome (Homo sapiens, UniProt Q9NYL2); conditions: kinase ZAK (Entrez ZAK)
# T6 construct: purchased Eurofin/DiscoverX
# How it was run: as §1
# [7] = biological target: T7, 384 kinases from the human genome (Homo sapiens, UniProt Q06418); conditions: kinase TYRO3 (Entrez TYRO3)
# T7 construct: purchased Eurofin/DiscoverX
# How it was run: as §1
# [8] = biological target: T8, 384 kinases from the human genome (Homo sapiens, UniProt Q9Y5S2); conditions: kinase MRCKB (Entrez CDC42BPB)
# T8 construct: purchased Eurofin/DiscoverX
# How it was run: as §1
# [9] = biological target: T9, 384 kinases from the human genome (Homo sapiens, UniProt Q05397); conditions: kinase FAK (Entrez PTK2)
# T9 construct: purchased Eurofin/DiscoverX
# How it was run: as §1
# [10] = biological target: T10, 384 kinases from the human genome (Homo sapiens, UniProt Q15208); conditions: kinase NDR1 (Entrez STK38)
# T10 construct: purchased Eurofin/DiscoverX
# T10 sequence (Q15208 whole entry): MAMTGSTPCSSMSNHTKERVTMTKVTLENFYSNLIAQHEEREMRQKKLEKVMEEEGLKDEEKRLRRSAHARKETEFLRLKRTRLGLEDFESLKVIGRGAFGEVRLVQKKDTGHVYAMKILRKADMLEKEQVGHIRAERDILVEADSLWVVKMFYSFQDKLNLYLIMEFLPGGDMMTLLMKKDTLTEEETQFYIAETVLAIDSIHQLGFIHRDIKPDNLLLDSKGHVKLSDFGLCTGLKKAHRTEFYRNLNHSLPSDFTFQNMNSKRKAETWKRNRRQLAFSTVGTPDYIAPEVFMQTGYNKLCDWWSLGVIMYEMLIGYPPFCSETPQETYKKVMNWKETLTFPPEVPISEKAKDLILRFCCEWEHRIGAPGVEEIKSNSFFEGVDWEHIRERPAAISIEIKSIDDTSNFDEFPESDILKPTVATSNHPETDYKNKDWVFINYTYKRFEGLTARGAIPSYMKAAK
# How it was run: as §1
# [11] = biological target: T11, 384 kinases from the human genome (Homo sapiens, UniProt P29320); conditions: kinase EPHA3 (Entrez EPHA3)
# T11 construct: purchased Eurofin/DiscoverX
# How it was run: as §1
# [12] = biological target: T12, 384 kinases from the human genome (Homo sapiens, UniProt P21127); conditions: kinase CDC2L1 (Entrez CDK11B)
# T12 construct: purchased Eurofin/DiscoverX
# How it was run: as §1
# [13] = biological target: T13, 384 kinases from the human genome (Homo sapiens, UniProt P36897); conditions: kinase TGFBR1 (Entrez TGFBR1)
# T13 construct: purchased Eurofin/DiscoverX
# How it was run: as §1
# [14] = biological target: T14, 384 kinases from the human genome (Homo sapiens, UniProt Q92772); conditions: kinase CDKL2 (Entrez CDKL2)
# T14 construct: purchased Eurofin/DiscoverX
# How it was run: as §1
# [15] = biological target: T15, 384 kinases from the human genome (Homo sapiens, UniProt Q8N752); conditions: kinase CSNK1A1L (Entrez CSNK1A1L)
# T15 construct: purchased Eurofin/DiscoverX
# T15 sequence (Q8N752 whole entry): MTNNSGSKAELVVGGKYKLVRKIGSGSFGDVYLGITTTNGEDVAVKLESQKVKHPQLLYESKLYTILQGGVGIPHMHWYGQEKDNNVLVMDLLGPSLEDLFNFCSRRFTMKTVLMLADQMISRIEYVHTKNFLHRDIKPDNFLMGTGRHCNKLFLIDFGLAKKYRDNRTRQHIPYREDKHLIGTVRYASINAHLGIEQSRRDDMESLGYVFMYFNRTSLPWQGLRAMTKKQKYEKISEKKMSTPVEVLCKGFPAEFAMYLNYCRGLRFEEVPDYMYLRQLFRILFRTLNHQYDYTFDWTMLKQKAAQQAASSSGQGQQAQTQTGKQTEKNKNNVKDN
# How it was run: as §1
# [16] = biological target: T16, 384 kinases from the human genome (Homo sapiens, UniProt P08581); conditions: kinase MET (Entrez MET)
# T16 construct: purchased Eurofin/DiscoverX
# How it was run: as §1
# [17] = biological target: T17, 384 kinases from the human genome (Homo sapiens, UniProt Q9NYY3); conditions: kinase PLK2 (Entrez PLK2)
# T17 construct: purchased Eurofin/DiscoverX
# How it was run: as §1
# [18] = biological target: T18, 384 kinases from the human genome (Homo sapiens, UniProt O14936); conditions: kinase CASK (Entrez CASK)
# T18 construct: purchased Eurofin/DiscoverX
# T18 sequence (O14936 whole entry): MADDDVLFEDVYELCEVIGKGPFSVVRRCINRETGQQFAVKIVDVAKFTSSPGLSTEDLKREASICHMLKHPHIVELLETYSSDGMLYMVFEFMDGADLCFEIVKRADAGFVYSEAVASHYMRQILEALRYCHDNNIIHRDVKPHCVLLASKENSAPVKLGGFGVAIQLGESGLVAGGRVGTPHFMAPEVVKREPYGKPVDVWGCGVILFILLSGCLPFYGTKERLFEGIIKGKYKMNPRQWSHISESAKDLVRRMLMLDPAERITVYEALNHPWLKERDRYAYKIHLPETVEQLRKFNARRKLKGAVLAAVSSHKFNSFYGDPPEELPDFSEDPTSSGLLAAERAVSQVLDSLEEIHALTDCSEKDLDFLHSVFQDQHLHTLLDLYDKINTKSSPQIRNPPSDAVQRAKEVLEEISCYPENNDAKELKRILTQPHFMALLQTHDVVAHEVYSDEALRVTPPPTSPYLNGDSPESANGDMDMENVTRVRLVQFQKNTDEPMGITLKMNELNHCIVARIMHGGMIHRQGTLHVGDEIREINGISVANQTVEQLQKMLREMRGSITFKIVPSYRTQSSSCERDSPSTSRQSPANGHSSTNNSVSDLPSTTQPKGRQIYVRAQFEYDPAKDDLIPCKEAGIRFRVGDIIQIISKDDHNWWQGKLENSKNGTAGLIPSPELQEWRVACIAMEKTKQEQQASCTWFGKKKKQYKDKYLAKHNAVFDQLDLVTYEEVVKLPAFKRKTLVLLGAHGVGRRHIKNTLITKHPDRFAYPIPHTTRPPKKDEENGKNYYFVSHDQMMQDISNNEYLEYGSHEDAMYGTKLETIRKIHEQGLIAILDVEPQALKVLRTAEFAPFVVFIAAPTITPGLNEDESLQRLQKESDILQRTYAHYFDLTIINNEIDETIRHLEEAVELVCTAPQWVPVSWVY
# How it was run: as §1
# [19] = biological target: T19, 384 kinases from the human genome (Homo sapiens, UniProt O00238); conditions: kinase BMPR1B (Entrez BMPR1B)
# T19 construct: purchased Eurofin/DiscoverX
# How it was run: as §1
# [20] = biological target: T20, 384 kinases from the human genome (Homo sapiens, UniProt Q05655); conditions: kinase PRKCD (Entrez PRKCD)
# T20 construct: purchased Eurofin/DiscoverX
# How it was run: as §1
# [21] = biological target: T21, 384 kinases from the human genome (Homo sapiens, UniProt O00506); conditions: kinase YSK1 (Entrez STK25)
# T21 construct: purchased Eurofin/DiscoverX
# T21 sequence (O00506 whole entry): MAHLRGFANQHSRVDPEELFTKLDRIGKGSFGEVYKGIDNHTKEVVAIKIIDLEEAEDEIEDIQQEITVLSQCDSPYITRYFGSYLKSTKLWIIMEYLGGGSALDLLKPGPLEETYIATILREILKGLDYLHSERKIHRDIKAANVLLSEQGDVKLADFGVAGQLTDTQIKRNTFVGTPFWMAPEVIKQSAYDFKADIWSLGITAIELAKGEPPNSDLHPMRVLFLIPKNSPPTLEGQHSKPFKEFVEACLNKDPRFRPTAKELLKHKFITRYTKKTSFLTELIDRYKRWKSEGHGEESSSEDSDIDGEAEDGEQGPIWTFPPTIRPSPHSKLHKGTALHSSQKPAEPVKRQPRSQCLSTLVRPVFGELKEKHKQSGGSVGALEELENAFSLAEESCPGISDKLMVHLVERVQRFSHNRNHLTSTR
# How it was run: as §1
# [22] = biological target: T22, 384 kinases from the human genome (Homo sapiens, UniProt Q96PY6); conditions: kinase NEK1 (Entrez NEK1)
# T22 construct: purchased Eurofin/DiscoverX
# T22 sequence (Q96PY6 whole entry): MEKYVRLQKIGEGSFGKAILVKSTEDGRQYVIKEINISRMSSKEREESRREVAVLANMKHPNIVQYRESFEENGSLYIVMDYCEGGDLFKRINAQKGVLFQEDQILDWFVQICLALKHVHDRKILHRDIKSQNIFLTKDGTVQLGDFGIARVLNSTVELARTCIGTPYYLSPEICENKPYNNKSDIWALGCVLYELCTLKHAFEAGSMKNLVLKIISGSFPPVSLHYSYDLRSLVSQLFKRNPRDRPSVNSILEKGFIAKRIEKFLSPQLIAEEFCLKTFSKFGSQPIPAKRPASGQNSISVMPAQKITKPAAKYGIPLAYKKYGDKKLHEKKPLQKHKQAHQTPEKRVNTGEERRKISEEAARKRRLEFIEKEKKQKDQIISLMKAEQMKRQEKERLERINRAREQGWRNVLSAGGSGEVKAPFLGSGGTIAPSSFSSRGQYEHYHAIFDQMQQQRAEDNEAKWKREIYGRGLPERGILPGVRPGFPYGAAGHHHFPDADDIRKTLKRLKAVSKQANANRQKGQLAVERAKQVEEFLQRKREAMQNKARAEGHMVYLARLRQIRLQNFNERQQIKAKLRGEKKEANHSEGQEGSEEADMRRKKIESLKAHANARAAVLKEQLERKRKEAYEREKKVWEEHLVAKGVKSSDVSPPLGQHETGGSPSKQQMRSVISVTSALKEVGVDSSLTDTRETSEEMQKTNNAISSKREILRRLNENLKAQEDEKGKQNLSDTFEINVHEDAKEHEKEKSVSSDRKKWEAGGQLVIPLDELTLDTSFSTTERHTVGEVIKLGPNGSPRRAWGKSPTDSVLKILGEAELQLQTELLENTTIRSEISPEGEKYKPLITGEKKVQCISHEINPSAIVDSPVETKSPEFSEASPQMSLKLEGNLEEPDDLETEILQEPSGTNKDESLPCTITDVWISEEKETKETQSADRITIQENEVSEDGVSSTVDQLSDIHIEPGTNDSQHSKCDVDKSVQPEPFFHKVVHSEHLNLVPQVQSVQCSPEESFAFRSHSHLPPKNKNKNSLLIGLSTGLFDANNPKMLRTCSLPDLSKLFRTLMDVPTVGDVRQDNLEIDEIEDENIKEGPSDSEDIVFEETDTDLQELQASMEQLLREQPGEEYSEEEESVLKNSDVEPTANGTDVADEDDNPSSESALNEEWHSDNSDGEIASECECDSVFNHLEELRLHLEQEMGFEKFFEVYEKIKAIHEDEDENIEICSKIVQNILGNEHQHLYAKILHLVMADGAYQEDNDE
# How it was run: as §1
# [23] = biological target: T23, 384 kinases from the human genome (Homo sapiens, UniProt P35916); conditions: kinase FLT4 (Entrez FLT4)
# T23 construct: purchased Eurofin/DiscoverX
# T23 sequence (P35916 25-1363): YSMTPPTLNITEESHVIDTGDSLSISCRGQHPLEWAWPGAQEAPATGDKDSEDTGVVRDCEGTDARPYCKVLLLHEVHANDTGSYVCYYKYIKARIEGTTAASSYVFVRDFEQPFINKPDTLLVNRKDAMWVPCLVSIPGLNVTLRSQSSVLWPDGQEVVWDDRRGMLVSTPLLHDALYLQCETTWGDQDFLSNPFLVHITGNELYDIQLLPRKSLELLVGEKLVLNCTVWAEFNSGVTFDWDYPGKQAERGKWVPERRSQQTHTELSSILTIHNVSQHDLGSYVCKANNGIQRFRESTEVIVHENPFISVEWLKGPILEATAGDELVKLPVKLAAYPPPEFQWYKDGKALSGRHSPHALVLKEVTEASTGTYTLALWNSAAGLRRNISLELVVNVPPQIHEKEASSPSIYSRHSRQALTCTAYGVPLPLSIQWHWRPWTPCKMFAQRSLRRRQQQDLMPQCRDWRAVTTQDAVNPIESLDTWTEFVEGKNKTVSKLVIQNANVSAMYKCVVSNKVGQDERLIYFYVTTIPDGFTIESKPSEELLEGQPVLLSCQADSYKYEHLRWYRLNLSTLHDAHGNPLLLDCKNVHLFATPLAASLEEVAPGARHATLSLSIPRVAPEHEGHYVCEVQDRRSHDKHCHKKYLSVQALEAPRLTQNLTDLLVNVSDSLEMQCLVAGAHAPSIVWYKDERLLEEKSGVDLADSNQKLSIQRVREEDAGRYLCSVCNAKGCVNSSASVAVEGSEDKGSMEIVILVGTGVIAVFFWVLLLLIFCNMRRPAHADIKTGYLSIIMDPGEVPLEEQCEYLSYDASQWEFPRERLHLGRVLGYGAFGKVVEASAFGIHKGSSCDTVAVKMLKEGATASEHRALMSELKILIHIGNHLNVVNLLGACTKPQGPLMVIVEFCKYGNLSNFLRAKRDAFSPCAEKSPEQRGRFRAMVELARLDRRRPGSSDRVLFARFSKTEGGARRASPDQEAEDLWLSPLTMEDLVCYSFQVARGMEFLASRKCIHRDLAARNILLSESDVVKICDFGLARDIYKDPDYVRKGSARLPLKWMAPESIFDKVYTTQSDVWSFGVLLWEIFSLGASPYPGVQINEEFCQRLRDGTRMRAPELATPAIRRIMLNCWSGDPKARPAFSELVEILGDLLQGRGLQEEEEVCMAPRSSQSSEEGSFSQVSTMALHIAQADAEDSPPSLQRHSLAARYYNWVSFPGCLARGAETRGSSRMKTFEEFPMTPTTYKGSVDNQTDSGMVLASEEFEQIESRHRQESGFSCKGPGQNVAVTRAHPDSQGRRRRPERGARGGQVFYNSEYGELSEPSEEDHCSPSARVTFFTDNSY
# How it was run: as §1
# [24] = biological target: T24, 384 kinases from the human genome (Homo sapiens, UniProt Q9UBF8); conditions: kinase PIK4CB (Entrez PI4KB)
# T24 construct: purchased Eurofin/DiscoverX
# How it was run: as §1
# [25] = biological target: T25, 384 kinases from the human genome (Homo sapiens, UniProt P11802)
# T25 construct: purchased Eurofin/DiscoverX
# T25 sequence (P11802 whole entry): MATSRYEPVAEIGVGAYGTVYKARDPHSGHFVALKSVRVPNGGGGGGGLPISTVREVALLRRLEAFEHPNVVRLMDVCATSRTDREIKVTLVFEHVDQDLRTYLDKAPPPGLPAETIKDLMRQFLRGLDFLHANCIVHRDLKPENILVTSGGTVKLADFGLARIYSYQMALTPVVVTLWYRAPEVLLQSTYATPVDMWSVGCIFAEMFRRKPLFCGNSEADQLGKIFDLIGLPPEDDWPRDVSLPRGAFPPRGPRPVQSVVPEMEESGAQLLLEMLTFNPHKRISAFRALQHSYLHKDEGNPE
# How it was run: as §1
# [26] = biological target: T26, 384 kinases from the human genome (Homo sapiens, UniProt Q9H093); conditions: kinase SNARK (Entrez NUAK2)
# T26 construct: purchased Eurofin/DiscoverX
# How it was run: as §1
compound,measurement,setting,value
CC(C)C(=O)N1CCN(c2ccc(NC(=O)c3cc4ccccc4o3)cc2Cl)CC1 [Compound 21],Percent Control,[1],100%
same,Percent Control,[2],58%
same,Percent Control,[3],100%
same,Percent Control,[4],91%
same,Percent Control,[5],89%
same,Percent Control,[6],72%
same,Percent Control,[7],58%
same,Percent Control,[8],94%
same,Percent Control,[9],100%
same,Percent Control,[10],91%
same,Percent Control,[11],91%
same,Percent Control,[12],100%
same,Percent Control,[13],79%
same,Percent Control,[14],100%
same,Percent Control,[15],98%
same,Percent Control,[16],91%
same,Percent Control,[17],90%
same,Percent Control,[18],100%
same,Percent Control,[19],82%
same,Percent Control,[20],100%
same,Percent Control,[21],100%
same,Percent Control,[22],77%
same,Percent Control,[23],89%
same,Percent Control,[24],74%
same,Percent Control,[25]; kinase CDK4 (Entrez CDK4),97%
same,Percent Control,[25]; kinase CDK4-cyclinD1 (Entrez CDK4),86%
same,Percent Control,[25]; kinase CDK4-cyclinD3 (Entrez CDK4),96%
same,Percent Control,[26],96%
